Experimental data reported in ChEMBL document CHEMBL5537112, “Emerging opportunities to treat idiopathic pulmonary fibrosis: Design, discovery, and optimizations of small-molecule drugs targeting fibrogenic pathways” (Eur J Med Chem, 2023).
Each block holds one compound with its values, some of them ahead of it.

Legend:
[1] = molecular target: T1, Type-1 angiotensin II receptor (Homo sapiens, UniProt P30556); test: Binding affinity to AT1R (unknown origin) assessed as inhibition constant
T1 sequence (P30556 whole entry): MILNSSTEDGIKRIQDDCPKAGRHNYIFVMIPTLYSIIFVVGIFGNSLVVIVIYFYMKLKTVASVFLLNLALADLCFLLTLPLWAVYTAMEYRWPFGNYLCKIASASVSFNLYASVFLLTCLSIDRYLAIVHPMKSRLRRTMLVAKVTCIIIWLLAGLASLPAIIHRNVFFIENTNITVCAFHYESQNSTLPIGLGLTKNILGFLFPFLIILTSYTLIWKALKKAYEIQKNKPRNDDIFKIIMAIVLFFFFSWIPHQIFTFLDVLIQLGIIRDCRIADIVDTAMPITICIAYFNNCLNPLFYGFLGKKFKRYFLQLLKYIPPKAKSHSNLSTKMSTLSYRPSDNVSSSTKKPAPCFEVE

[2] = molecular target: T2, Platelet-derived growth factor receptor beta (Homo sapiens, UniProt P09619); test: Inhibition of PDGFRbeta (unknown origin) by enzymatic assay
[3] = molecular target: T2, Platelet-derived growth factor receptor beta; test: Inhibition of glutathione S-transferase fused PDGFbetaR (unknown origin) in 3T3 cells; assay type: cell-based
[4] = molecular target: Vascular endothelial growth factor receptor 2 (Homo sapiens, UniProt P35968); test: Inhibition of VEGFR2 (unknown origin)
[5] = Half life in rat; assay type: ADME; conditions: in vivo
[6] = AUC in Sprague-Dawley rat at 10 mg/kg, po; assay type: ADME, organism-based; conditions: in vivo
[7] = Metabolic stability in Sprague-Dawley rat assessed as half life; assay type: ADME
[8] = molecular target: Lysophosphatidic acid receptor 1 (Homo sapiens, UniProt Q92633); test: Antagonist activity at human LPA1 receptor expressed in CHO cells assessed as inhibition of LPA-induced calcium mobilization pretreated for 15 mins followed by LPA stimulation by FLIPR analysis; assay type: functional, cell-based
[9] = molecular target: T2, Platelet-derived growth factor receptor beta; test: Inhibition of PDGFRbeta (unknown origin) by DiscoverX KINOMEscan assay
[10] = molecular target: Sphingosine 1-phosphate receptor 2 (Homo sapiens, UniProt O95136); test: Agonist activity at S1P2 (unknown origin) expressed in CHO cells assessed as Ca2+ activation; assay type: functional, cell-based
[11] = molecular target: Voltage-gated inwardly rectifying potassium channel KCNH2 (Homo sapiens, UniProt Q12809); test: Inhibition of hERG
[12] = molecular target: Phosphatidylinositol 4,5-bisphosphate 3-kinase catalytic subunit alpha isoform (Homo sapiens, UniProt P42336); test: Inhibition of PI3Kalpha (unknown origin) by kinase profiling assay
[13] = Oral bioavailability in rat at 5 mg/kg; assay type: ADME, organism-based; conditions: in vivo
[14] = Clearance in rat at 1 mg/kg, iv; assay type: ADME, organism-based; conditions: in vivo
in vivo = conditions: rat, po, 5 mg/kg
Description: Half life in rat at 5 mg/kg, po

fMet-Leu-Phe receptor = molecular target: T3, fMet-Leu-Phe receptor (Homo sapiens, UniProt P21462); test: Inhibition of human FPR expressed in human U-937 cells by fluorescence based ligand binding assay; assay type: cell-based
T3 sequence (P21462 whole entry): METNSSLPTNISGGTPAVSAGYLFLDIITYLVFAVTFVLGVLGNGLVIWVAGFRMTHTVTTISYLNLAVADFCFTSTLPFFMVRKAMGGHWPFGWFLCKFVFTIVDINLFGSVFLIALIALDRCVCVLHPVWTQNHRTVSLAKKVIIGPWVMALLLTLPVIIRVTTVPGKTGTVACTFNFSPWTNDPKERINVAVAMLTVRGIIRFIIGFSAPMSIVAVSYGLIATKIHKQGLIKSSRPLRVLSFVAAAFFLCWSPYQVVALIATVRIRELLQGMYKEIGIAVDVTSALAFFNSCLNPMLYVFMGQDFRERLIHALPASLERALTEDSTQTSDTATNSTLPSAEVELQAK

[15] = Clearance in rat at 5 mg/kg, iv; assay type: ADME, organism-based; conditions: in vivo
[16] = Oral bioavailability in rat; assay type: ADME, organism-based; conditions: in vivo

T2 sequence (P09619 whole entry, the tested form may be a part): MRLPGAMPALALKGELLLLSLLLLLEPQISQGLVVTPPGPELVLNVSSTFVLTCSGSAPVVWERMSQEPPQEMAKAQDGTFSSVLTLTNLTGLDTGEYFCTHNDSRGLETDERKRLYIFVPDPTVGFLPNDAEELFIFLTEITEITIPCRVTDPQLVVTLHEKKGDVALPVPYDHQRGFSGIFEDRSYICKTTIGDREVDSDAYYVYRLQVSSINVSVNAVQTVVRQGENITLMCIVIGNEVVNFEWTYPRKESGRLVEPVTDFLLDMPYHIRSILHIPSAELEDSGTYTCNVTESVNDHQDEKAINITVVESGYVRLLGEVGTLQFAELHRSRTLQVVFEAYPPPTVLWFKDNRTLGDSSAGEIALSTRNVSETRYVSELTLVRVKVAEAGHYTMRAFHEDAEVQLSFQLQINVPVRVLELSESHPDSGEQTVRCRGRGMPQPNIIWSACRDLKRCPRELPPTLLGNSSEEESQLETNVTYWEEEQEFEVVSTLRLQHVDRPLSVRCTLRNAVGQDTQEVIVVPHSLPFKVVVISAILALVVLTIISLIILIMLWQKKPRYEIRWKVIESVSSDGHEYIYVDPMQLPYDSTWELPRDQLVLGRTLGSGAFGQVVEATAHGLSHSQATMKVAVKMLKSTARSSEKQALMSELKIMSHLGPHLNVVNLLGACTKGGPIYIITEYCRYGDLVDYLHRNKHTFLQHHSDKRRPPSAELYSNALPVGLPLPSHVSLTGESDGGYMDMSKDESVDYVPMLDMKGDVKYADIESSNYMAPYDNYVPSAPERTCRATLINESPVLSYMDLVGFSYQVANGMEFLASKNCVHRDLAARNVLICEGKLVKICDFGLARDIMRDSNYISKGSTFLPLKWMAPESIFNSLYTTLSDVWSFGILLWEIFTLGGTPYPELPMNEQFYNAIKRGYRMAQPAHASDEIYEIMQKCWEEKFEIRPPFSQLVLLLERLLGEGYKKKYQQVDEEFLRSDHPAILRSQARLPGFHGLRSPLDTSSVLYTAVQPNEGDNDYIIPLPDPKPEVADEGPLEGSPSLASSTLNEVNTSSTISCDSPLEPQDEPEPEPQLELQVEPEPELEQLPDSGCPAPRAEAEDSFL
Chain of Vascular endothelial growth factor receptor 2 (P35968 whole entry): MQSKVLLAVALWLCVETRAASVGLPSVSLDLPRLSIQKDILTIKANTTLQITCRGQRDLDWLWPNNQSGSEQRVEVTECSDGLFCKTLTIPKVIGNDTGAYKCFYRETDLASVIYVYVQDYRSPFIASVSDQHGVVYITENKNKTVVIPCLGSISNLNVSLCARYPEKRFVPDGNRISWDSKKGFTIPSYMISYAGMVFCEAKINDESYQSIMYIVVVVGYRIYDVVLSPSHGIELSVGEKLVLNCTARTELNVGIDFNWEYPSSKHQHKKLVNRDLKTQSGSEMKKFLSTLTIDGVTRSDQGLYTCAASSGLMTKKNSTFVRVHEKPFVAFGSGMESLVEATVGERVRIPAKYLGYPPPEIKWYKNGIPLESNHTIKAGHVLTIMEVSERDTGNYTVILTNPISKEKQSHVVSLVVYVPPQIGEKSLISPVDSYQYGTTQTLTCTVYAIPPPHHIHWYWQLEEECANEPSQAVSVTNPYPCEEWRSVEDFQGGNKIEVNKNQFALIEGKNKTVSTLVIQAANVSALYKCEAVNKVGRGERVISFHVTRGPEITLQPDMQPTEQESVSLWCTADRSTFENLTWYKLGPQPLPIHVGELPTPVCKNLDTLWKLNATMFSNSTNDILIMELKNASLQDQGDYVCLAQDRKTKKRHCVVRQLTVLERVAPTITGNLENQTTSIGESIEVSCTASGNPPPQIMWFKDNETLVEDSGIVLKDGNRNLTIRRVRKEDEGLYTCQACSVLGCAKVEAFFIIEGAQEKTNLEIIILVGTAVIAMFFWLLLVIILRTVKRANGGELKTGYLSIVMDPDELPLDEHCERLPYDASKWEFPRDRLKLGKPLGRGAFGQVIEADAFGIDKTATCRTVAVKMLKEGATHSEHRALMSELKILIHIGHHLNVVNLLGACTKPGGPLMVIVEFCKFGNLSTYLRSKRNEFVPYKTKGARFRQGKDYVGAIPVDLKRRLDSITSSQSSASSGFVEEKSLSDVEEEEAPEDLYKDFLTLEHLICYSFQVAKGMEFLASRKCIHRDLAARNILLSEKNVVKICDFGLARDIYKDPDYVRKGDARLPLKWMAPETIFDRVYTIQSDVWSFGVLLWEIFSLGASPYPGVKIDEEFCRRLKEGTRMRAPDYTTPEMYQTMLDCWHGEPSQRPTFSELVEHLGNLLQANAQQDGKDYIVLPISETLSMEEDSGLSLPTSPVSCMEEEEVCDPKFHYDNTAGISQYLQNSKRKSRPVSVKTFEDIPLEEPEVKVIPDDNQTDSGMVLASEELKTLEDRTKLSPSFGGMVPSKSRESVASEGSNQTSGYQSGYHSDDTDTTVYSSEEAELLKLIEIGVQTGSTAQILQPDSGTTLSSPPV
Chain of Phosphatidylinositol 4,5-bisphosphate 3-kinase catalytic subunit alpha isoform (P42336 whole entry, canonical isoform): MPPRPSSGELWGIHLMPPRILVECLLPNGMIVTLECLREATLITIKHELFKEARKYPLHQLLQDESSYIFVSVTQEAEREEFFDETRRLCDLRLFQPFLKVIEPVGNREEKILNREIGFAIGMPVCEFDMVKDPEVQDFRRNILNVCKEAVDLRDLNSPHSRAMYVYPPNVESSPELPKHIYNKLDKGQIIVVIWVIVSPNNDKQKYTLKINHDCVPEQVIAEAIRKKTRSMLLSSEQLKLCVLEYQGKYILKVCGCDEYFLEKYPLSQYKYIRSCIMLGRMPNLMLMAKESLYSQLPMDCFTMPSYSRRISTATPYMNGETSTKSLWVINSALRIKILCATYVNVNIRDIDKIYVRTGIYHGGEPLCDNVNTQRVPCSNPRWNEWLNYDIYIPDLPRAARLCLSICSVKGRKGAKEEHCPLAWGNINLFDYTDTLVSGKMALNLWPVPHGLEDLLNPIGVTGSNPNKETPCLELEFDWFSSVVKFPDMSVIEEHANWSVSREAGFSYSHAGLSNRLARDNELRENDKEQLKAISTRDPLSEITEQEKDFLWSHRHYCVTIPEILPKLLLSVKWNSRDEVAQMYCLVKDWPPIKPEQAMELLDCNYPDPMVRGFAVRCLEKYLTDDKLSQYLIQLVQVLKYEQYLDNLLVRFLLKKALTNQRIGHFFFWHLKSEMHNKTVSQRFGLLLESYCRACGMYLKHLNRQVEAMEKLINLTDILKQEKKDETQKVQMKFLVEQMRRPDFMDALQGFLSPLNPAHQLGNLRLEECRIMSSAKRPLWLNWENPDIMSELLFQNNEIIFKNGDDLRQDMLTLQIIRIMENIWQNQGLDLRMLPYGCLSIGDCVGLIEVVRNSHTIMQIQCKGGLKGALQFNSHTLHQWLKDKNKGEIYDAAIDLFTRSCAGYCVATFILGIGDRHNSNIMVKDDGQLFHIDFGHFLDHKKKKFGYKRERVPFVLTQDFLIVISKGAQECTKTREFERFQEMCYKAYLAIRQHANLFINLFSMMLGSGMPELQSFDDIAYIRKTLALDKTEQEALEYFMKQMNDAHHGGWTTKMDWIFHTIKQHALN
Chain of Voltage-gated inwardly rectifying potassium channel KCNH2 (Q12809 whole entry, canonical isoform): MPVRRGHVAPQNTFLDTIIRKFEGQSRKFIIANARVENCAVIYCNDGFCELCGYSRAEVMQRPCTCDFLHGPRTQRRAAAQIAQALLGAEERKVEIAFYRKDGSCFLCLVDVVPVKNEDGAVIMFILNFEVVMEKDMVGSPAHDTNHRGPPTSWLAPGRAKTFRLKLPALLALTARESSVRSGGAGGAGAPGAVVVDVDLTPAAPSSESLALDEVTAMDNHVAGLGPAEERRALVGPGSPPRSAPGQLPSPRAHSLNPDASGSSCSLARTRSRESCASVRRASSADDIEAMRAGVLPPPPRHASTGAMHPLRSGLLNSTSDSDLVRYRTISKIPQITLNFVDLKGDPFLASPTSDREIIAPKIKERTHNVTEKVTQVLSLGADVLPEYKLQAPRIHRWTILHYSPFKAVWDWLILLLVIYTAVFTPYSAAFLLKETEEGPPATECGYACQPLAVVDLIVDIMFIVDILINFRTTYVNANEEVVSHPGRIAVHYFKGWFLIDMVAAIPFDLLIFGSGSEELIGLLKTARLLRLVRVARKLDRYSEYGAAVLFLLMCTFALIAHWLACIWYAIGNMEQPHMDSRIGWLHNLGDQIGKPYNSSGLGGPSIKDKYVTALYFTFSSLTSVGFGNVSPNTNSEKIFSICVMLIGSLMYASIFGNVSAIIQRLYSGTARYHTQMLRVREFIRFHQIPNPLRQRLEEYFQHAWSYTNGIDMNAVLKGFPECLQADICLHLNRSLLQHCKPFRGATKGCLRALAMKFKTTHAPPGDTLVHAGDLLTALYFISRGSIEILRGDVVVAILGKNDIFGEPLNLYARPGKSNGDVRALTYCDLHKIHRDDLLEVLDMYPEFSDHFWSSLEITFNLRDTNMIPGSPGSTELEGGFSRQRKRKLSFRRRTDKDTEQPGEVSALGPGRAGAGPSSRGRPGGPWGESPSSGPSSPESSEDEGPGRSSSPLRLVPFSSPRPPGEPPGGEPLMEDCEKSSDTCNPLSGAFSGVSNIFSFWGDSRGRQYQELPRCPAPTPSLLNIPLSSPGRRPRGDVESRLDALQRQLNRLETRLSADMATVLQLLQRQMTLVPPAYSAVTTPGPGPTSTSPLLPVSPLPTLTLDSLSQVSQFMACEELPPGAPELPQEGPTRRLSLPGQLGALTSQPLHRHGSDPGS
Chain of Sphingosine 1-phosphate receptor 2 (O95136 whole entry): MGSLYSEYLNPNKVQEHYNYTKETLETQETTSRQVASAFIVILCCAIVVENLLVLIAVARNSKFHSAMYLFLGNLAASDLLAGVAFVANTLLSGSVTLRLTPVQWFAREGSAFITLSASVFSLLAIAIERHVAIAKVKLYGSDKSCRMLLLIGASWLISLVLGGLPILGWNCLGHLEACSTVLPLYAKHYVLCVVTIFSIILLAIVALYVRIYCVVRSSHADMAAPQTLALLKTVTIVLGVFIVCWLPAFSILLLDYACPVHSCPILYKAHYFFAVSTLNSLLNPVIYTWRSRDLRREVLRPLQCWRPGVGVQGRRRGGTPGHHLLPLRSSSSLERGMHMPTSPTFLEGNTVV

Structure (SMILES): CCCCOC(=O)NS(=O)(=O)c1sc(CC(C)C)cc1-c1ccc(Cn2c(CC)nc3c(C)cc(C)nc32)cc1
Ki [1]: 0.0039 µM

Structure (SMILES): COC(=O)c1ccc2c(c1)NC(=O)/C2=C(\Nc1ccc2c(c1)CCN2C(=O)CN1CCOCC1)c1ccccc1
IC50 [2]: 0.025 µM | IC50 [3]: 0.1 µM | IC50 [4]: 0.11 µM | half-life [5]: 4.8 h | AUC [6]: 6406 h/ng/mL | half-life [7]: 4.8 h

Structure (SMILES): Cc1cc(NNC(=O)Nc2cc(Cl)nc(Cl)c2)ncc1-c1cn(C)nc1C
IC50 [10]: > 1.4 µM

Structure (SMILES): COC(=O)c1ccc2c(c1)NC(=O)/C2=C(\Nc1ccc(N(C)C(=O)CN2CCN(C)CC2)cc1)c1ccccc1 [NINTEDANIB]
IC50 [11]: 2.6 µM

Structure (SMILES): O=C1NC(=O)C(Cc2ccc3nccc(-c4ccncc4)c3c2)S1 (stereo not given)
IC50 [12]: 0.002 µM

Structure (SMILES): COc1cc2c(Oc3ccc4[nH]c(C)cc4c3F)ccnc2cc1OCC1(N)CC1
IC50 [4]: < 0.001 µM

Structure (SMILES): O=S(=O)(Nc1cncc(-c2ccc3nccc(-c4ccncc4)c3c2)c1)c1ccccc1F
IC50 [12]: 0.0001 µM

Structure (SMILES): Cc1c(-c2ccccc2)nc2ccc(Br)cc2c1C(=O)NC[C@H](CC(=O)O)c1ccccc1Cl
IC50 (fMet-Leu-Phe receptor): 0.032 µM

Structure (SMILES): CCc1nc2c(C)cc(N3CCN(CC(=O)N4CC(O)C4)CC3)cn2c1N(C)c1nc(-c2ccc(F)cc2)c(C#N)s1 [ZIRITAXESTAT]
clearance [15]: 11.5 mL/min/kg | bioavailability [16]: 34%

Other lines, results leading:

EC50 [8]: 0.0067 µM
Structure (SMILES): Cc1noc(-c2ccc(-c3ccc(C4(C(=O)O)CC4)cc3)cc2)c1NC(=O)O[C@H](C)c1ccccc1 [BMS-986020]

IC50 [9]: 0.00706 µM
Structure (SMILES): CNC(=O)c1cc2c(Oc3ccc(NC(=S)NC(=O)Cc4ccccc4)cc3F)ccnc2cc1OC [TAS-115]

bioavailability [13]: > 100% | clearance [14]: 15 mL/min/kg | half-life (in vivo): 1.9 h
Structure (SMILES): O=c1nc(OC[C@@H]2COCCO2)cc2n1CCc1cc(C#CC3CC3)ccc1-2 [GLPG-1205]
